Reference: the NIST ThermoML archive (doi:10.1016/j.fluid.2006.12.016)
± gives the expanded uncertainty stated by the source.

Conditions: 101.33 kPa, Liquid

CCCCn1cc[n+](C)c1.F[B-](F)(F)F [1-butyl-3-methylimidazolium tetrafluoroborate]
Conditions	mass density [kg/m3]	viscosity [mPa·s]
293.15 K	1205.89 ± 3	136.3 ± 18
294.15 K	1205.17 ± 3	–
295.15 K	1204.46 ± 3	–
296.15 K	1203.73 ± 3	–
297.15 K	1203 ± 3	–
298.15 K	1202.3 ± 3	103.8 ± 10
299.15 K	1201.57 ± 2.9	–
300.15 K	1200.85 ± 2.9	–
301.15 K	1200.13 ± 2.9	–
302.15 K	1199.43 ± 2.9	–
303.15 K	1198.71 ± 2.9	80.6 ± 5.2
304.15 K	1198 ± 2.9	–
305.15 K	1197.28 ± 2.9	–
306.15 K	1196.58 ± 2.9	–
307.15 K	1195.85 ± 2.9	–
308.15 K	1195.16 ± 2.9	64 ± 2.3
309.15 K	1194.44 ± 2.9	–
310.15 K	1193.73 ± 2.9	–
311.15 K	1193.02 ± 2.9	–
312.15 K	1192.32 ± 2.9	–
313.15 K	1191.63 ± 2.9	51.5 ± 1.1
314.15 K	1190.9 ± 2.9	–
315.15 K	1190.2 ± 2.9	–
316.15 K	1189.49 ± 2.8	–
317.15 K	1188.78 ± 2.8	–
318.15 K	1188.08 ± 2.8	42.1 ± 1.6
319.15 K	1187.36 ± 2.8	–
320.15 K	1186.66 ± 2.8	–
321.15 K	1185.96 ± 2.8	–
322.15 K	1185.27 ± 2.8	–
323.15 K	1184.55 ± 2.8	34.9 ± 1.4

CCCCCCn1cc[n+](C)c1.F[B-](F)(F)F [1-hexyl-3-methylimidazolium tetrafluoroborate]
Conditions	mass density [kg/m3]	viscosity [mPa·s]
288.15 K	1151.49 ± 2.5	315.7 ± 78
289.15 K	1150.78 ± 2.5	–
290.15 K	1150.08 ± 2.5	–
291.15 K	1149.37 ± 2.5	–
292.15 K	1148.66 ± 2.5	–
293.15 K	1147.96 ± 2.5	232.8 ± 48
294.15 K	1147.25 ± 2.5	–
295.15 K	1146.56 ± 2.5	–
296.15 K	1145.85 ± 2.5	–
297.15 K	1145.15 ± 2.5	–
298.15 K	1144.45 ± 2.5	174.1 ± 29
299.15 K	1143.75 ± 2.5	–
300.15 K	1143.04 ± 2.5	–
301.15 K	1142.34 ± 2.5	–
302.15 K	1141.65 ± 2.5	–
303.15 K	1140.96 ± 2.4	132.1 ± 17
304.15 K	1140.25 ± 2.4	–
305.15 K	1139.56 ± 2.4	–
306.15 K	1138.87 ± 2.4	–
307.15 K	1138.16 ± 2.4	–
308.15 K	1137.48 ± 2.4	103 ± 10
309.15 K	1136.77 ± 2.4	–
310.15 K	1136.08 ± 2.4	–
311.15 K	1135.39 ± 2.4	–
312.15 K	1134.7 ± 2.4	–
313.15 K	1134.03 ± 2.4	81.7 ± 5.5
314.15 K	1133.33 ± 2.4	–
315.15 K	1132.64 ± 2.4	–
316.15 K	1131.95 ± 2.4	–
317.15 K	1131.28 ± 2.4	–
318.15 K	1130.59 ± 2.4	65.9 ± 2.5
319.15 K	1129.9 ± 2.4	–
320.15 K	1129.22 ± 2.4	–
321.15 K	1128.53 ± 2.3	–
322.15 K	1127.87 ± 2.3	–
323.15 K	1127.17 ± 2.3	53.9 ± 1.2

CCCCCCCC[n+]1ccn(C)c1.F[B-](F)(F)F [1-methyl-3-octylimidazolium tetrafluoroborate]
Conditions	mass density [kg/m3]	viscosity [mPa·s]
288.15 K	1110.37 ± 2.2	412.3 ± 120
289.15 K	1109.66 ± 2.2	–
290.15 K	1108.98 ± 2.2	–
291.15 K	1108.29 ± 2.2	–
292.15 K	1107.6 ± 2.2	–
293.15 K	1106.92 ± 2.2	300.9 ± 73
294.15 K	1106.24 ± 2.2	–
295.15 K	1105.55 ± 2.2	–
296.15 K	1104.87 ± 2.1	–
297.15 K	1104.18 ± 2.1	–
298.15 K	1103.51 ± 2.1	222.8 ± 45
299.15 K	1102.82 ± 2.1	–
300.15 K	1102.13 ± 2.1	–
301.15 K	1101.45 ± 2.1	–
302.15 K	1100.77 ± 2.1	–
303.15 K	1100.09 ± 2.1	168.9 ± 28
304.15 K	1099.41 ± 2.1	–
305.15 K	1098.73 ± 2.1	–
306.15 K	1098.05 ± 2.1	–
307.15 K	1097.35 ± 2.1	–
308.15 K	1096.69 ± 2.1	131.2 ± 17
309.15 K	1096 ± 2.1	–
310.15 K	1095.32 ± 2.1	–
311.15 K	1094.64 ± 2.1	–
312.15 K	1093.96 ± 2.1	–
313.15 K	1093.29 ± 2.1	102.9 ± 10
314.15 K	1092.6 ± 2	–
315.15 K	1091.92 ± 2	–
316.15 K	1091.25 ± 2	–
317.15 K	1090.57 ± 2	–
318.15 K	1089.89 ± 2	81.8 ± 5.5
319.15 K	1089.23 ± 2	–
320.15 K	1088.54 ± 2	–
321.15 K	1087.88 ± 2	–
322.15 K	1087.21 ± 2	–
323.15 K	1086.51 ± 2	66.7 ± 2.7
